In paper PMC12526004, “Tiliroside Suppresses Uric Acid Production in Hepatocytes and Attenuates Purine-Induced Hyperuricemia in Male ICR Mice” (Molecules, 2025):

Tests used:
[1] = biological target: xanthine oxidase (bovine milk-derived) (Bos taurus, UniProt P80457); experiment: XO inhibition assay in vitro (UV absorbance at 295 nm); assay type: biochemical; details: xanthine substrate, 37 °C, mean of three independent experiments, read-out: IC50, direct XO inhibitory activity
Experimental: Prior to the assay, the compounds were freshly dissolved in a mixture of 30% dimethyl sulfoxide (DMSO; FUJIFILM Wako) and 70% phosphate buffer (100 mM, pH 7.5) to prepare test solutions at final concentrations ranging from 0 to 100 µM. In each well of a 96-well microplate, 50 µL of the test solution was mixed with 60 µL of buffer and 30 µL of xanthine oxidase (7.8 mU/mL, bovine milk-derived; Sigma-Aldrich). After preincubation at 37 °C for 10 min, the reaction was initiated by adding 60 µL of xanthine substrate (150 µM; FUJIFILM Wako). Absorbance at 295 nm was monitored for 30 min at 37 °C using a Spark 10 M microplate reader (Tecan Group Ltd., Männedorf, Switzerland). XO inhibitory activity was expressed as percentage inhibition, calculated using the formula Inhibition (%) = 100 × [1 − (B/A)], where A and B represent the absorbance increase in the absence and presence of the test compound, respectively. All measurements were performed in triplicate.
All experimental data are presented as mean ± SEM. […] Data from the in vitro XO inhibition assay are shown as mean values from three independent experiments. IC50 values were calculated by nonlinear regression analysis using dose–response curves generated from at least six concentrations of each compound. All statistical analyses were performed using GraphPad Prism version 10 (GraphPad Software, San Diego, CA, USA).

[2] = tested on: AML12 hepatocytes; experiment: Cell viability, WST-8 assay; assay type: cell-based; details: concentrations up to 100 µM, 2 h
Experimental: The viability of AML12 cells was determined using the WST-8 assay provided in the Cell Counting Kit-8 (Dojindo Laboratories, Kumamoto, Japan). Cells were initially seeded at 5 × 10^3 cells per well in 96-well plates and maintained in DMEM/F-12 medium containing 10% (v/v) FBS for 72 h. To induce serum deprivation, the medium was replaced with serum-free DMEM/F-12, and cells were incubated for an additional 24 h. […] The treatment lasted for 2 h. Subsequently, cells were washed again with BSS and incubated with the WST-8 reagent for 1 h. Absorbance was measured at 490 nm using a microplate reader (MTP-310Lab; CORONA […] Co., Ltd., […], Japan). Cell viability was normalized to the DMSO control (0 μM), which was set at 100%.

[3] = biological target: T1, hepatic XO (Mus musculus, UniProt Q00519); experiment: Hepatic XO activity in hyperuricemic model mice; assay type: in vivo, male ICR mice; details: three days, mean ± SEM
T1 construct: 40 µL of liver homogenate was mixed with 30 µL of ice-cold 100 mM Tris-HCl buffer; from tissue; host or cells: liver of male ICR mice (homogenate supernatant)
T1 sequence (Q00519 whole entry): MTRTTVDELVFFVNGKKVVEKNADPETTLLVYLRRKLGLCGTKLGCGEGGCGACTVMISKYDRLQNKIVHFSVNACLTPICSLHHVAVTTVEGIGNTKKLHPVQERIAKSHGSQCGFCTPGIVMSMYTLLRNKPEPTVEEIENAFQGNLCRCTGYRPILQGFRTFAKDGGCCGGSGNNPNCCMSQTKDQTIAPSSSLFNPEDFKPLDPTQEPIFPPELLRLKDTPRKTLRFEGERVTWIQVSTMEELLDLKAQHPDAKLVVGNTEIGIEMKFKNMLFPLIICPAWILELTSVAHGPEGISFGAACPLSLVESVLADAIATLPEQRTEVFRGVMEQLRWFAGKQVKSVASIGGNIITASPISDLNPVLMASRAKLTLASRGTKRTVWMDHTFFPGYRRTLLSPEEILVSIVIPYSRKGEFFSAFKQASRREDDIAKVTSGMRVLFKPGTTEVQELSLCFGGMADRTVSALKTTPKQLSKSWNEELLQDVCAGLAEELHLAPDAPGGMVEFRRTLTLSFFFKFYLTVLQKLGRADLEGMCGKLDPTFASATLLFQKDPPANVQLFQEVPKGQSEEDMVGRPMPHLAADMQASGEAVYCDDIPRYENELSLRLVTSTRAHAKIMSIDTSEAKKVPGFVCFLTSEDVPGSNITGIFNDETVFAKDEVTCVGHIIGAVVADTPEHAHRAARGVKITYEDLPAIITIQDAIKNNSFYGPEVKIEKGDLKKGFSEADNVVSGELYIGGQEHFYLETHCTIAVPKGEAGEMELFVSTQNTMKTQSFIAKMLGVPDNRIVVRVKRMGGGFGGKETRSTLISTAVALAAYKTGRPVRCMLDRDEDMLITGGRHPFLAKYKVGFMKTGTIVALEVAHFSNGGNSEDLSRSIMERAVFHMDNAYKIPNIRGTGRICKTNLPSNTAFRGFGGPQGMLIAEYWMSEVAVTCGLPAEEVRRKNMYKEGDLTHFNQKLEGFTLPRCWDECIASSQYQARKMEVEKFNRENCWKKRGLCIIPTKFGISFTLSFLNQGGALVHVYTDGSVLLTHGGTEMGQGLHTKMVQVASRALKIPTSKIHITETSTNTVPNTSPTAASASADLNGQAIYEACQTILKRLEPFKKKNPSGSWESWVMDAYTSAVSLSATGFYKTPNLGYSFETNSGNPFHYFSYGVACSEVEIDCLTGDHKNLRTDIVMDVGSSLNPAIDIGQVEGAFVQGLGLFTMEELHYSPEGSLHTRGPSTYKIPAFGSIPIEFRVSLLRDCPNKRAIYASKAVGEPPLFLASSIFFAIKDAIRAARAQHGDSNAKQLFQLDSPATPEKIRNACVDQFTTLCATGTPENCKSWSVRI
Experimental: The test compounds were suspended in 0.2 mL of 0.5% CMC-Na based on the average body weight of each group. The actual volume administered was adjusted according to the individual body weight of each mouse. Prior to each administration, the mice were fasted for four hours. The negative and hyperuricemic control groups received the vehicle (0.5% CMC-Na) alone. On the third day of treatment, hyperuricemia was induced by intraperitoneal injection of guanosine monophosphate (GMP) and inosine monophosphate (IMP, both from Tokyo Chemical Industry, Tokyo, Japan), each at a dose of 300 mg/kg body weight, dissolved in PBS (–). GMP and IMP were dissolved in 0.2 mL of PBS (–) based on the average body weight of all mice. The injection volume was similarly adjusted according to each mouse’s body weight. These injections were performed one hour after the final oral administration of the test compounds or vehicle. The negative control group received PBS (–) alone. […] The liver and kidneys were then excised. Blood samples were centrifuged at 5000× g for 10 min at 4 °C to obtain plasma, which was stored at −80 °C until analysis.
Liver samples preparation was performed according to the methods previously described [27]. Each portion of the liver tissue was processed for a specific analysis. One portion was homogenized in ice-cold 100 mM Tris-HCl buffer (pH 7.5), followed by sonication and centrifugation at 10,000× g for 5 min at 4 °C. […]
Hepatic XO activity was assessed using a previously reported method [28], with slight modifications to accommodate 96-well microplate measurements [33]. […] The enzymatic reaction was initiated by adding 180 µL of xanthine solution (150 µM in the same buffer), and the absorbance at 295 nm was monitored at 37 °C for 30 min using a Spark 10 M microplate reader. UA formation was quantified based on a standard curve generated with known concentrations of UA. Protein content in the homogenates was determined using the Pierce™ BCA Protein Assay Kit, and XO activity was expressed as micromoles of UA produced per minute per milligram of protein (µmol UA/min/mg protein).

Chain of xanthine oxidase (bovine milk-derived) (P80457 whole entry): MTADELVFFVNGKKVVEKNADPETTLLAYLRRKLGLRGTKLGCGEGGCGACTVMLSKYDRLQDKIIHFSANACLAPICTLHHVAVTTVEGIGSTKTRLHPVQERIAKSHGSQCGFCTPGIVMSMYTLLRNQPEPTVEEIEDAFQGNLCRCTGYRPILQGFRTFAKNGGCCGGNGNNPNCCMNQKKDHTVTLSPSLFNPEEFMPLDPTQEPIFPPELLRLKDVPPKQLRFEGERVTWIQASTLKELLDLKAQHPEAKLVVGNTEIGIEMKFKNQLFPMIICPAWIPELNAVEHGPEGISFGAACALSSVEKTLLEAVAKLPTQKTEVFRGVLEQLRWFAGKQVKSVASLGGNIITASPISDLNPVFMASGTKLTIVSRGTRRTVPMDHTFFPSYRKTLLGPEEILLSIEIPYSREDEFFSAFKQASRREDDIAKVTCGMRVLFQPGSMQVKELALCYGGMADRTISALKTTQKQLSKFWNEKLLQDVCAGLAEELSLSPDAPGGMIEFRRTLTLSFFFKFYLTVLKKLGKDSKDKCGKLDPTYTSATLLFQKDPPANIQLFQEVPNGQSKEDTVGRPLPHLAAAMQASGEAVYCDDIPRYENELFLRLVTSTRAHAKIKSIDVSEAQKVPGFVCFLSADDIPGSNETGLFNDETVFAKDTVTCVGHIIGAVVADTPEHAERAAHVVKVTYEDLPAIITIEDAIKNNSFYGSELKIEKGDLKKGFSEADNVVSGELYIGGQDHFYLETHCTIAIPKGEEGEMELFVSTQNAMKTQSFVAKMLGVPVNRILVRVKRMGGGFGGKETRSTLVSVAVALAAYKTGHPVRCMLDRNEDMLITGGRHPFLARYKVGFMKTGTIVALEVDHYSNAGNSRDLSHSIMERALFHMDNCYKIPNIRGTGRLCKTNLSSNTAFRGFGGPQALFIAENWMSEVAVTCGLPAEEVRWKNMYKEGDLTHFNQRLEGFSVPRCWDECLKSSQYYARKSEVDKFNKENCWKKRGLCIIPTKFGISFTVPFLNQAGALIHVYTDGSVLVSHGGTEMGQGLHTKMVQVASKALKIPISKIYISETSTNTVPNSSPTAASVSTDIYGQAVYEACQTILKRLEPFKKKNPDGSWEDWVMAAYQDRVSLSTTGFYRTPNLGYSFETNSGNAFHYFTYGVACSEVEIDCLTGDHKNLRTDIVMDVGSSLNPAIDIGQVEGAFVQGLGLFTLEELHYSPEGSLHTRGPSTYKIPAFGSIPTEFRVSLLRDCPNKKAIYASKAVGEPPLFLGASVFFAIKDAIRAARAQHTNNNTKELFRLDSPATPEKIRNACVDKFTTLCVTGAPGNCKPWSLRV

IC50 [1]: > 100 µM
Hepatic XO Activity ([3]; 50 mg/kg oral): 0.70 ± 0.08 µmol UA/min/mg Protein
Hepatic XO Activity ([3]; 100 mg/kg oral): 0.82 ± 0.06 µmol UA/min/mg Protein
Hepatic XO Activity ([3]; 300 mg/kg oral): 0.67 ± 0.07 µmol UA/min/mg Protein
SMILES: O=C(/C=C/c1ccc(O)cc1)OC[C@H]1O[C@@H](Oc2c(-c3ccc(O)cc3)oc3cc(O)cc(O)c3c2=O)[C@H](O)[C@@H](O)[C@@H]1O [Tiliroside, kaempferol-3-O-(6′′-p-coumaroyl)-glucoside]
cytotoxic effects (cell viability) [2]: did not exhibit any cytotoxic effects
